Marks after values point to notes of the source that are not given here.
What was measured:
human GIPR = target: T1, human GIPR (Homo sapiens, UniProt P48546); experiment: Agonist activity on human GIPR, CRE-luciferase reporter assay (increase in intracellular cAMP as indicator); format: cell-based; conditions: GLP1R EC50 / GIPR EC50
T1 construct: expressed in transfected cells
T1 sequence (P48546 22-466): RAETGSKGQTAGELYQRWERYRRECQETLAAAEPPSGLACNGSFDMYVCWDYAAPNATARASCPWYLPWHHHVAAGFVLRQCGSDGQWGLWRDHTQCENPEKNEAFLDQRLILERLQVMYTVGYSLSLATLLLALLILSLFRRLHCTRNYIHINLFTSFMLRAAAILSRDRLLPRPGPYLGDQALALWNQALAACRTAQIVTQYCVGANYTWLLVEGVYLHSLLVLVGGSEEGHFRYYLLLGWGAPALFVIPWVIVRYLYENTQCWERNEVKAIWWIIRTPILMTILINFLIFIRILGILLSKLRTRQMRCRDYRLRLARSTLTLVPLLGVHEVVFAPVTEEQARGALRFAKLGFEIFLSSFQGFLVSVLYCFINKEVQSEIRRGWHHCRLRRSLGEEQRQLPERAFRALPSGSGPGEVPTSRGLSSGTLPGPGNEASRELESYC
Description: The human GIPR gene having an identical sequence to Genebank Accession No. U39231 is cloned into a pMSRα-neo vector to prepare hGIPR/pMSRα-neo.
(2) Construction of Reporter Plasmid Expressing Cell
Luciferase reporter gene with a cAMP-responsive sequence located upstream is transferred to a CHO-K1 cell to construct a CRE-LUC/CHO-K1 cell.
(4) Transfer of Human GIPR Gene to CRE-LUC/CHO-K1 Cell and Obtaining of Expressing Cell
The plasmid hGIPR/pMSRα-neo obtained in (1) is transferred to the CRE-LUC/CHO-K1 cell obtained in (2) to obtain a transformant. Subsequently, the cell line inducing the luciferase expression, hGIPR/CRE-LUC/CHO-K1 cell, is selected from the obtained transformant by adding GIP.
25 μL each of the hGIPR/CRE-LUC/CHO-K1 cell is inoculated in a 384-well white plate (Corning) in such a way as to provide 5×10^3 cells/well and may be cultured in a HamF12 medium containing 10% fetal bovine serum, 100 U/mL penicillin, and 100 μg/mL streptomycin in a CO2 incubator at 37° C. overnight. 5 μL of a medium containing a test compound is added to the cells and incubated for 4 hours at the indicated concentration in a CO2 incubator at 37° C. Steady-Glo (Promega) is added in amounts of 30 μL and shaken under light shielding. Twenty minutes later, luciferase activity is measured using a plate reader Envision (PerkinElmer). The GIPR agonist activity is calculated with increase in intracellular cAMP concentration as the indicator when the luciferase activity in the presence of 10 nM of GIP was 100% and the luciferase activity in the case of adding DMSO instead of the test compound was 0%.

[1] = test system: morphine (0.6 mg/kg, s.c.)-induced emesis in ferrets; experiment: Morphine-induced acute emetic model in male ferrets; format: in vivo, ferret; conditions: for Comment: Anti-Emetic Activity (inhibition) on morphine-induced emesis: summary of the morphine experiments
Experimental: Example 6—In-Vivo Effect of GIP Receptor Agonist Peptides on Emesis in Morphine Induced Emesis Model in Live Male Ferrets
Effect of subcutaneously administered GIP receptor agonist peptide in morphine-induced acute emetic model.
To evaluate the antiemetic effect, the GIP receptor agonist peptides other than natural human GIP were subcutaneously administered into male ferrets 30 minutes before morphine administration. […]. Up to 60 minutes after morphine administration, the condition of the ferrets was monitored to record the frequencies and time points of abdominal contraction motions, vomiting behaviors, licking with the tongue, and fidgety behavior occurring
Effects of Subcutaneously Administered GIP Receptor Agonist Peptides in Morphine-Induced Acute Emetic Model
30 nmol/kg of Compounds 3 and 5 were dissolved with a vehicle (0.09 w/v % tween 80/10% DMSO/saline), respectively, to prepare test solutions. […] of the test solutions and the vehicle were subcutaneously administered to ferrets (4 in each group), respectively. At the time of each of 4 hours, after administration, 0.6 mg/kg of morphine was subcutaneously administered. […] See results in Tables 6, 7 and 8.
(§1) 10 nmol/kg of each compound dissolved with a vehicle (0.09 w/v % tween 80/10% DMSO/saline) respectively, to prepare test solutions. […] of the test solutions and the vehicle were subcutaneously administered to ferrets (4 in each group), respectively. At the time of each of 4 hours, or 120 hours after administration, 0.6 mg/kg of morphine was subcutaneously administered. Up to 360 minutes after morphine administration, the condition of the ferrets was monitored to record the frequencies and time points of abdominal contraction motions, vomiting behaviors, licking with the tongue, and fidgety behavior occurring.
as §1, with “30 nmol/kg” for “10 nmol/kg”, “80/10% DMSO/saline),respectively,” for “80/10% DMSO/saline) respectively,”

[2] = ferret, morphine 0.6 mg/kg s.c. 4 h after drug, 1047 μg/kg s.c.
[3] = ferret, morphine 0.6 mg/kg s.c. 4 h after drug, 1047 μg/kg s.c., non-responders counted as 30 min
[4] = male ferrets, 30 nmol/kg s.c., morphine 0.6 mg/kg s.c. 4 hours after administration

CCCCCCCCCCCCCCCC(=O)NCCCC[C@H](NC(=O)[C@H](Cc1c[nH]c2ccccc12)NC(=O)[C@H](CC(=O)O)NC(=O)[C@H](CC(N)=O)NC(=O)[C@H](CCCCN)NC(=O)[C@H](CCCCN)NC(=O)CNC(=O)[C@H](CCCCN)NC(=O)[C@H](CCC(N)=O)NC(=O)[C@H](C)NC(=O)[C@H](CC(C)C)NC(=O)[C@H](CC(C)C)NC(=O)[C@H](Cc1c[nH]c2ccccc12)NC(=O)[C@H](CC(N)=O)NC(=O)[C@@H](NC(=O)[C@H](Cc1ccccc1)NC(=O)[C@H](CC(=O)O)NC(=O)[C@H](CCC(N)=O)NC(=O)[C@H](CCC(N)=O)NC(=O)[C@H](Cc1c[nH]cn1)NC(=O)[C@@H](NC(=O)[C@H](CCCCN)NC(=O)[C@H](CC(=O)O)NC(=O)[C@H](CCSC)NC(=O)[C@H](C)NC(=O)[C@@H](NC(=O)[C@H](CO)NC(=O)[C@H](Cc1ccc(O)cc1)NC(=O)[C@H](CC(=O)O)NC(=O)[C@H](CO)NC(=O)[C@@H](NC(=O)[C@H](Cc1ccccc1)NC(=O)[C@@H](NC(=O)CNC(=O)[C@H](CCC(=O)O)NC(=O)[C@@H](C)NC(=O)[C@@H](N)Cc1ccc(O)cc1)[C@@H](C)O)[C@@H](C)CC)[C@@H](C)CC)[C@@H](C)CC)C(C)C)C(=O)N[C@@H](Cc1c[nH]cn1)C(=O)N[C@@H](CC(N)=O)C(=O)N[C@H](C(=O)N[C@H](C(=O)N[C@@H](CCC(N)=O)C(N)=O)[C@@H](C)CC)[C@@H](C)CC [Compound 2]
Selectivity Ratio (B/A) (human GIPR): 417
Emesis: Duration [1, 2]: 0.3 ± 0.6 min
Emesis: Frequency [1, 2]: 2.7 ± 4.6
Emesis: No. of animals (responder/used) [1, 2]: 1/3
Fidget: Duration [1, 2]: 0.3 ± 0.6 min
Fidget: Frequency [1, 2]: 0.3 ± 0.6
Fidget: No. of animals (responder/used) [1, 2]: 1/3
Licking: Duration [1, 2]: 0.0 ± 0.0 min
Licking: Frequency [1, 2]: 0.0 ± 0.0
Licking: No. of animals (responder/used) [1, 2]: 0/3 #
Retching: Duration [1, 2]: 0.3 ± 0.6 min
Retching: Frequency [1, 2]: 2.7 ± 4.6
Retching: No. of animals (responder/used) [1, 2]: 1/3
Vomiting: Duration [1, 2]: 0.0 ± 0.0 min
Vomiting: Frequency [1, 2]: 0.0 ± 0.0
Vomiting: No. of animals (responder/used) [1, 2]: 0/3
Emesis: Latency [1, 3]: 22.7 ± 12.7 min
Fidget: Latency [1, 3]: 22.7 ± 12.7 min
Licking: Latency [1, 3]: 30.0 ± 0.0 min
Retching: Latency [1, 3]: 22.7 ± 12.7 min
Vomiting: Latency [1, 3]: 30.0 ± 0.0 min
Attenuation of morphine-induced emesis (in words) ([1]; male ferrets, 30 nmol/kg s.c. 30 minutes before morphine 0.6 mg/kg s.c.): completely attenuated
Comment: Anti-Emetic Activity (inhibition) on morphine-induced emesis ([1]; male ferrets): partial inhibition

CCCCCCCCCCCCCCCC(=O)NCCCC[C@H](NC(=O)[C@H](CC(=O)O)NC(=O)[C@H](CCSC)NC(=O)[C@H](C)NC(=O)[C@@H](NC(=O)[C@H](CO)NC(=O)[C@H](Cc1ccc(O)cc1)NC(=O)[C@H](CC(=O)O)NC(=O)[C@H](CO)NC(=O)[C@@H](NC(=O)[C@H](Cc1ccccc1)NC(=O)[C@@H](NC(=O)CNC(=O)[C@H](CCC(=O)O)NC(=O)[C@H](C)NC(=O)[C@@H](N)Cc1ccc(O)cc1)[C@@H](C)O)[C@@H](C)CC)[C@@H](C)CC)C(=O)N[C@H](C(=O)N[C@@H](Cc1c[nH]cn1)C(=O)N[C@@H](CCC(N)=O)C(=O)N[C@@H](CCC(N)=O)C(=O)N[C@@H](CC(=O)O)C(=O)N[C@@H](Cc1ccccc1)C(=O)N[C@H](C(=O)N[C@@H](CC(N)=O)C(=O)N[C@@H](Cc1c[nH]c2ccccc12)C(=O)N[C@@H](CC(C)C)C(=O)N[C@@H](CC(C)C)C(=O)N[C@@H](C)C(=O)N[C@@H](CCC(N)=O)C(=O)N[C@@H](CCCCN)C(=O)NCC(=O)N[C@@H](CCCCN)C(=O)N[C@@H](CCCCN)C(=O)N[C@@H](CC(N)=O)C(=O)N[C@@H](CC(=O)O)C(=O)N[C@@H](Cc1c[nH]c2ccccc12)C(=O)N[C@@H](CCCCN)C(=O)N[C@@H](Cc1c[nH]cn1)C(=O)N[C@@H](CC(N)=O)C(=O)N[C@H](C(=O)N[C@H](C(=O)N[C@@H](CCC(N)=O)C(N)=O)[C@@H](C)CC)[C@@H](C)CC)C(C)C)[C@@H](C)CC [Compound 3]
Selectivity Ratio (B/A) (human GIPR): 447
Ferrets in which the vomiting symptom was observed (in words) ([1]; ferrets, morphine administered 4 hours after administration): all of the 4 ferrets
Duration of emesis [1, 4]: 5.5 ± 7.1 min
Emetic episodes [1, 4]: 21.8 ± 19.2
Latency period [1, 4]: 7.0 ± 2.9 min
No. of animals that did not vomit [1, 4]: 0
Emetic episodes, % Inhibition of mean value ([1]; male ferrets, 30 nmol/kg s.c., morphine 0.6 mg/kg s.c. 4 hours after administration, vs vehicle): [−143%]
Comment: Anti-Emetic Activity (inhibition) on morphine-induced emesis ([1]; male ferrets): partial inhibition

Source: US20220016215A1, “GIP RECEPTOR AGONIST PEPTIDE COMPOUNDS AND USES THEREOF” (TAKEDA PHAARMACEUTICAL COMPANY LIMITED, priority 2018, published 2022)
